Assays:
MEK1 activated ERK1 = MEK1 activated ERK1 (Homo sapiens (Human), UniProt P27361); experiment: Omnia continuous-read kinase assay for potency against MEK1 activated ERK1; format: biochemical; details: MEK1 activated ERK1, WT, ATP at KM
Excerpt: Omnia Assay Protocol for Potency Assessment Against MEK1 Activated ERK1:
The protocol below describes continuous-read kinase assays to measure potency of compounds against activated ERK1 enzyme. The mechanics of the assay platform are best described by the vendor (Invitrogen, Carlsbad, Calif.) on their website at the following URL: invitrogen.com/site/us/en/home.html.
Briefly, a 1.25× stock of ERK1 enzyme (14-439-K) from Millipore (Billerica, Mass.), 5×ATP (AS001A) and ST17-Sox conjugated peptide substrate (KNZ1171C) were prepared in 1× kinase reaction buffer consisting of 20 mM Tris, pH 7.5, 5 mM MgCl2, 1 mM EGTA, 5 mM β-glycerophosphate, 5% glycerol (10× stock, KB002A) and 0.2 mM DTT. 10 μL of ATP/ST17-sox peptide substrate mix was combined with 0.5 μL volume of 100% DMSO and serially diluted compounds were prepared in 100% DMSO in a Corning (#3574) 384-well, white, non-binding surface microtiter plate (Corning, N.Y.). Kinase reactions were started with the addition of 40 μL of ERK1 solution and monitored every 71 seconds for 30-240 minutes at λex360/λem485 in a Synergy plate reader from BioTek (Winooski, Vt.). At the conclusion of each assay, progress curves from each well were examined for linear reaction kinetics and fit statistics (R^2, 95% confidence interval, absolute sum of squares). Initial velocity (0 minutes to ˜30+ minutes) from each reaction was determined from the slope of a plot of relative fluorescence units vs time (minutes or seconds) and then plotted against inhibitor concentration to estimate ^AppIC50 from log [Inhibitor] vs Response, Variable Slope model in GraphPad Prism from GraphPad Software (San Diego, Calif.).
[Reagent] used in optimized protocol:
[ERK1]=4 nM, [ATP]=50 μM, [ST17-Sox]=10 μM (ATP ^appKM 48 μM)
The results of this assay show the degree of inhibition of ERK activity, which is a direct measurement of inhibition of ERK activity. Results from this assay are reported in Table A under the column “ERK1 Omnia WT ATP KM IC50 (nM).”

Erk1 = Erk1 (Homo sapiens (Human), UniProt P27361); experiment: Protein Mass Modification Assay (intact protein MALDI); format: binding
Outline: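 Human Erk1 was incubated 60 min at room temperature with a 10-fold molar excess of compound, then analysed as intact protein by MALDI with sinapinic acid matrix. The centroid mass shift versus untreated protein was divided by compound molecular weight to give percent modified protein.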

Sequence of Erk1 (P27361 whole entry, looked up): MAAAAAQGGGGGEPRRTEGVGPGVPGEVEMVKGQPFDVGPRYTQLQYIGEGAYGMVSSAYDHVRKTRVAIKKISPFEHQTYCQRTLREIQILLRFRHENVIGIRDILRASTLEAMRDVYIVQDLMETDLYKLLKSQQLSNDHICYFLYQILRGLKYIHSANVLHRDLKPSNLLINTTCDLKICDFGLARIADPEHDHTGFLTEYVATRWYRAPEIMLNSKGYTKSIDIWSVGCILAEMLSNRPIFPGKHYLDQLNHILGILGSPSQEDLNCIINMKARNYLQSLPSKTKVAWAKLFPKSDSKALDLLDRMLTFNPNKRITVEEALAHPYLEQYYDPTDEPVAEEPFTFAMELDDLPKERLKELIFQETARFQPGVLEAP
Sequence of MEK1 activated ERK1 (P27361 whole entry): as the sequence (P27361 whole entry, looked up) above

Question: Which results are given for `C=CC(=O)Nc1cc(C)ccc1Nc1nc(N[C@H]2CCCN(C(=O)c3ccccc3)C2)ncc1C(F)(F)F` [Compound I-44, (S)—N-(2-((2-((1-Benzoylpiperidin-3-yl)amino)-5-(trifluoromethyl)pyrimidin-4-yl)amino)-5-methylphenyl)acrylamide]?
Answer: IC50 (MEK1 activated ERK1): > 1000 nM; ERK1 Mass Mod (%) (Erk1): E (provided a mass modification of ≧70%)

Question: Which results are given for `C=CC(=O)Nc1cc(C)ccc1Nc1nc(Nc2cnnc(OC)c2)ncc1C(F)(F)F` [Compound I-335, N-(2-((2-((6-methoxypyridazin-4-yl)amino)-5-(trifluoromethyl)pyrimidin-4-yl)amino)-5-methylphenyl)acrylamide]?
Answer: IC50 (MEK1 activated ERK1): > 1000 nM; ERK1 Mass Mod (%) (Erk1): E (provided a mass modification of ≧70%)

Question: Which results are given for `C=CC(=O)Nc1cc(F)ccc1Nc1nc(Nc2ccc(F)cc2C#N)ncc1Cl` [Compound I-221, N-(2-((5-chloro-2-((2-cyano-4-fluorophenyl)amino)pyrimidin-4-yl)amino)-5-fluorophenyl)acrylamide]?
Answer: IC50 (MEK1 activated ERK1): < 100 nM; ERK1 Mass Mod (%) (Erk1): E (provided a mass modification of ≧70%)

Question: With `C=C(F)C(=O)Nc1ccccc1Nc1nc(N[C@H]2CCCN(C(C)=O)C2)ncc1C(F)(F)F` [Compound I-55, (S)—N-(2-((2-((1-Acetylpiperidin-3-yl)amino)-5-(trifluoromethyl)pyrimidin-4-yl)amino)phenyl)-2-fluoroacrylamide] as the molecule, how does the IC50 (MEK1 activated ERK1) read?
Answer: < 100 nM

Question: And the “ERK1 Mass Mod (%)” value (Erk1)?
Answer: E (provided a mass modification of ≧70%)

Question: Which IC50 (MEK1 activated ERK1) does the source give for `CC#CC(=O)N[C@@H]1CCCC[C@H]1Nc1nc(N[C@H]2CCCN(C(=O)CO)C2)ncc1C(F)(F)F` [Compound I-33, N-((1R,2R)-2-((2-(((S)-1-(2-Hydroxyacetyl)piperidin-3-yl)amino)-5-(trifluoromethyl)pyrimidin-4-yl)amino)cyclohexyl)but-2-ynamide] here?
Answer: > 1000 nM

Question: What about the “ERK1 Mass Mod (%)” value (Erk1) of the same molecule?
Answer: F (provided a mass modification of 31-69%)

Question: What does the source list for `C=CC(=O)Nc1ccccc1Nc1nc(Nc2cc(C(N)=O)ccc2C#N)ncc1Cl` [Compound I-192, 3-((4-((2-acrylamidophenyl)amino)-5-chloropyrimidin-2-yl)amino)-4-cyanobenzamide]?
Answer: IC50 (MEK1 activated ERK1): < 100 nM; ERK1 Mass Mod (%) (Erk1): E (provided a mass modification of ≧70%)

Question: How did the IC50 (MEK1 activated ERK1) turn out when `C=CC(=O)NCc1ccccc1Nc1nc(Nc2cc(C(N)=O)ccc2C)ncc1Cl` [Compound I-189, 3-((4-((2-(acrylamidomethyl)phenyl)amino)-5-chloropyrimidin-2-yl)amino)-4-methylbenzamide] was run?
Answer: > 1000 nM

Question: And the “ERK1 Mass Mod (%)” value (Erk1)?
Answer: G (proived a mass modification ≦30%)

Question: `C=CC(=O)Nc1cc(C)ccc1Nc1nc(N[C@H]2CCCN(C(=O)CN)C2)ncc1C(F)(F)F` [Compound I-42, (S)—N-(2-((2-((1-(2-Aminoacetyl)piperidin-3-yl)amino)-5-(trifluoromethyl)pyrimidin-4-yl)amino)-5-methylphenyl)acrylamide] was tested. Which IC50 (MEK1 activated ERK1) did it give?
Answer: < 100 nM

Question: What about the “ERK1 Mass Mod (%)” value (Erk1) of the same molecule?
Answer: E (provided a mass modification of ≧70%)

Question: Which results are given for `CC(C)S(=O)(=O)c1ccccc1Nc1nc(N[C@H]2CCCN(C(=O)CO)C2)ncc1C(F)(F)F` [Compound I-310, (S)-2-hydroxy-1-(3-((4-((2-(isopropylsulfonyl)phenyl)amino)-5-(trifluoromethyl)pyrimidin-2-yl)amino)piperidin-1-yl)ethanone]?
Answer: IC50 (MEK1 activated ERK1): < 100 nM; ERK1 Mass Mod (%) (Erk1): G (proived a mass modification ≦30%)

Question: For `C=CC(=O)Nc1cc(OC)ccc1Nc1nc(Nc2cc(OC)nc(N3CCN(C(C)=O)CC3)c2)ncc1Cl` [Compound I-297, N-(2-((2-((2-(4-acetylpiperazin-1-yl)-6-methoxypyridin-4-yl)amino)-5-chloropyrimidin-4-yl)amino)-5-methoxyphenyl)acrylamide], which IC50 (MEK1 activated ERK1) is on record?
Answer: < 100 nM

Question: And the “ERK1 Mass Mod (%)” value (Erk1)?
Answer: E (provided a mass modification of ≧70%)

Question: What does the source list for `C=CC(=O)N[C@H]1CCC[C@@H]1Nc1nc(Nc2cc(C(N)=O)ccc2C)ncc1Cl` [Compound I-215, 3-((4-(((1 S,2S)-2-acrylamidocyclopentyl)amino)-5-chloropyrimidin-2-yl)amino)-4-methylbenzamide]?
Answer: IC50 (MEK1 activated ERK1): > 1000 nM; ERK1 Mass Mod (%) (Erk1): G (proived a mass modification ≦30%)
